According to ChEMBL document CHEMBL6074720, “Dihydrofolate reductase inhibitory potential of 1H-indole-based-meldrum linked 1H-1,2,3-triazoles as new anticancer derivatives: In-vitro and in-silico studies” (Eur J Med Chem, 2025):
Calls of active or inactive are those of the source. No cut-off for these calls is given here.

Legend:
[1] = target: T1, Dihydrofolate reductase (Homo sapiens) (UniProt P00374); experiment: Inhibition of DHFR (unknown origin) using dihydro folic acid as substrate at 0.5 mM preincubated with compound for 5 mins followed by substrate addition and measured after 30 mins in presence of NADPH by absorbance based assay relative to control; settings: time 35.0 min
T1 sequence (whole entry): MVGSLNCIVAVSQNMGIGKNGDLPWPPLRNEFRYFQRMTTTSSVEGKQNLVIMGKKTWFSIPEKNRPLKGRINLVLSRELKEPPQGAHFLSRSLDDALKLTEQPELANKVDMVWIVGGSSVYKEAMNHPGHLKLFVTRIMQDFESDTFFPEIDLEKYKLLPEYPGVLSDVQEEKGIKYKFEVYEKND

Dihydrofolate reductase = target: T2, Dihydrofolate reductase (Homo sapiens, UniProt P00374); experiment: (§1) Inhibition of DHFR (unknown origin) using dihydro folic acid as substrate preincubated with compound for 5 mins followed by substrate addition and measured after 30 mins in presence of NADPH by absorbance based assay
T2 sequence (P00374 whole entry): T1 sequence (whole entry)

[2] = target: T1, Dihydrofolate reductase (Homo sapiens); experiment: as §1; settings: time 35.0 min

For `CC1(C)OC(=O)C(Cc2cn(-c3ccc(Br)cc3)nn2)(Cc2c[nH]c3ccccc23)C(=O)O1`, the inhibition [1] was 91.6% and the IC50 (Dihydrofolate reductase) was 9.57 µM.
`CC1(C)OC(=O)C(Cc2cn(-c3ccc(Br)cc3)nn2)(Cc2cn(CCC#N)c3ccccc23)C(=O)O1` was tested, and the inhibition [1] was 91.6% and the IC50 (Dihydrofolate reductase) was 11.3 µM.
Compound `CC1(C)OC(=O)C(Cc2cn(-c3ccc(C(F)(F)F)cc3)nn2)(Cc2cn(CCC#N)c3ccccc23)C(=O)O1` has an inhibition [1] of 90.5% and an IC50 (Dihydrofolate reductase) of 13.9 µM.
For `CC1(C)OC(=O)C(=Cc2cn(CCC#N)c3ccccc23)C(=O)O1`, the inhibition [1] was 35.3% and the inhibition [2] was “inactive”.
In the case of `CC1(C)OC(=O)C(Cc2cn(-c3ccccc3)nn2)(Cc2c[nH]c3ccccc23)C(=O)O1`, the inhibition [1] is reported as 89.7% and the IC50 (Dihydrofolate reductase) is reported as 23.8 µM.
Compound `CC1(C)OC(=O)C(Cc2cn(-c3ccc(F)cc3)nn2)(Cc2cn(Cc3ccc(C#N)cc3)c3ccccc23)C(=O)O1` has an inhibition [1] of 91.7% and an IC50 (Dihydrofolate reductase) of 6.15 µM.
Compound `CC1(C)OC(=O)C(Cc2cn(-c3ccccc3)nn2)(Cc2cn(CCC#N)c3ccccc23)C(=O)O1` has an inhibition [1] of 87.3% and an IC50 (Dihydrofolate reductase) of 27.6 µM.
Compound `Cc1ccccc1-n1cc(CC2(Cc3cn(Cc4ccc(C#N)cc4)c4ccccc34)C(=O)OC(C)(C)OC2=O)nn1` has an inhibition [1] of 90.6% and an IC50 (Dihydrofolate reductase) of 14.5 µM.
Work on `CC1(C)OC(=O)C(Cc2cn(-c3ccc(F)cc3)nn2)(Cc2cn(CCC#N)c3ccccc23)C(=O)O1` yielded an inhibition [1] of 92.5% and an IC50 (Dihydrofolate reductase) of 4.78 µM.
Compound `COc1ccc(OC(=O)C(Cc2cn(-c3ccc(Br)cc3)nn2)Cc2cn(Cc3ccc(C#N)cc3)c3ccccc23)cc1` (configuration not stated) has an inhibition [1] of 86.7% and an IC50 (Dihydrofolate reductase) of 25.3 µM.
In the case of `C#CCC1(Cc2cn(Cc3ccc(C#N)cc3)c3ccccc23)C(=O)OC(C)(C)OC1=O`, the inhibition [1] is reported as 41.4% and the inhibition [2] is reported as “inactive”.
Compound `CC1(C)OC(=O)C(Cc2cn(-c3ccc(C(F)(F)F)cc3)nn2)(Cc2cn(Cc3ccc(C#N)cc3)c3ccccc23)C(=O)O1` has an inhibition [1] of 91.8% and an IC50 (Dihydrofolate reductase) of 8.71 µM.
In the case of `CC1(C)OC(=O)C(Cc2c[nH]c3ccccc23)C(=O)O1`, the inhibition [1] is reported as 36.2% and the inhibition [2] is reported as “inactive”.
Work on `CC1(C)OC(=O)C(Cc2cn(-c3ccc(F)cc3)nn2)(Cc2c[nH]c3ccccc23)C(=O)O1` yielded an inhibition [1] of 91.7% and an IC50 (Dihydrofolate reductase) of 5.1 µM.
In the case of `C#CCC1(Cc2c[nH]c3ccccc23)C(=O)OC(C)(C)OC1=O`, the inhibition [1] is reported as 40.2% and the inhibition [2] is reported as “inactive”.
With `N#CCCn1cc(C=O)c2ccccc21` the inhibition [1] was 24.8% and the inhibition [2] was “inactive”.
For `CC1(C)OC(=O)C(=Cc2cn(Cc3ccc(C#N)cc3)c3ccccc23)C(=O)O1`, the inhibition [1] was 30.2% and the inhibition [2] was “inactive”.
`CC1(C)OC(=O)C(Cc2cn(CCC#N)c3ccccc23)C(=O)O1` was tested, and the inhibition [1] was 38.9% and the inhibition [2] was “inactive”.
For `CC1(C)OC(=O)C(Cc2cn(-c3ccc(C(F)(F)F)cc3)nn2)(Cc2c[nH]c3ccccc23)C(=O)O1`, the inhibition [1] was 91.3% and the IC50 (Dihydrofolate reductase) was 10.1 µM.
`Cc1ccccc1-n1cc(CC2(Cc3cn(CCC#N)c4ccccc34)C(=O)OC(C)(C)OC2=O)nn1` was tested, and the inhibition [1] was 89.4% and the IC50 (Dihydrofolate reductase) was 18.3 µM.
For `CC1(C)OC(=O)C(Cc2cn(-c3ccccc3)nn2)(Cc2cn(Cc3ccc(C#N)cc3)c3ccccc23)C(=O)O1`, the inhibition [1] was 86.2% and the IC50 (Dihydrofolate reductase) was 30.4 µM.
For `CC1(C)OC(=O)C(Cc2cn(Cc3ccc(C#N)cc3)c3ccccc23)C(=O)O1`, the inhibition [1] was 25.5% and the inhibition [2] was “inactive”.
Compound `Cc1ccccc1-n1cc(CC2(Cc3c[nH]c4ccccc34)C(=O)OC(C)(C)OC2=O)nn1` has an inhibition [1] of 90.7% and an IC50 (Dihydrofolate reductase) of 19.6 µM.
With `COc1ccc(-n2cc(CC3(Cc4cn(CCC#N)c5ccccc45)C(=O)OC(C)(C)OC3=O)nn2)cc1` the inhibition [1] was 91.8% and the IC50 (Dihydrofolate reductase) was 5.83 µM.
`COc1ccc(OC(=O)C(Cc2cn(-c3ccc(F)cc3)nn2)Cc2cn(CCC#N)c3ccccc23)cc1` (configuration not stated) was tested, and the inhibition [1] was 91.3% and the IC50 (Dihydrofolate reductase) was 12.8 µM.
In the case of `C#CCC1(Cc2cn(CCC#N)c3ccccc23)C(=O)OC(C)(C)OC1=O`, the inhibition [1] is reported as 46.2% and the inhibition [2] is reported as “inactive”.
Work on `COc1ccc(OC(=O)C(Cc2cn(-c3ccc(F)cc3)nn2)Cc2cn(Cc3ccc(C#N)cc3)c3ccccc23)cc1` (configuration not stated) yielded an inhibition [1] of 90.9% and an IC50 (Dihydrofolate reductase) of 16.1 µM.
`N#Cc1ccc(Cn2cc(C=O)c3ccccc32)cc1` was tested, and the inhibition [1] was 25.2% and the inhibition [2] was “inactive”.
With `COc1ccc(-n2cc(CC3(Cc4cn(Cc5ccc(C#N)cc5)c5ccccc45)C(=O)OC(C)(C)OC3=O)nn2)cc1` the inhibition [1] was 92.3% and the IC50 (Dihydrofolate reductase) was 3.48 µM.
In the case of `COc1ccc(-n2cc(CC3(Cc4c[nH]c5ccccc45)C(=O)OC(C)(C)OC3=O)nn2)cc1`, the inhibition [1] is reported as 90.9% and the IC50 (Dihydrofolate reductase) is reported as 4.36 µM.
`CC1(C)OC(=O)C(Cc2cn(-c3ccc(Br)cc3)nn2)(Cc2cn(Cc3ccc(C#N)cc3)c3ccccc23)C(=O)O1` showed an inhibition [1] of 91.5% and an IC50 (Dihydrofolate reductase) of 9.1 µM.
